Data published in patent US10576125B2, “Methods for enhancing synaptogenesis and neuritogenesis” (HOUGH EAR INSTITUTE, priority 2016, dated 2020).

Columns and labels:
[1] = tested on: IHC ribbon synapses in murine SGN-IHC co-culture; test: Kainic acid excitotoxic trauma in SGN-IHC co-culture; assay type: cell-based; conditions: for KA-induced shift of pre-synaptic densities from typical to apical distributions: quantitative evaluation
Excerpt: The previous findings were applied to a murine SGN-IHC co-culture model of excitotoxic trauma. In IHCs of undamaged co-cultures of auditory sensory epithelia (organs of Corti, OC) and associated spiral ganglion neurons (NC), most of the pre-synaptic C-terminal binding protein 2 (CtBP2)-immunoreactive puncta (small red dots) are located in a “typical,” cytoarchitectural position, located along the basal surface of the cell, below or surrounding the IHC nucleus (large red spheres). A marked shift from this typical CtBP2 basal immunoreactivity pattern to a more apical distribution pattern occurred after exposure to the excitotoxic glutamate analog, kainic acid (KA). […] The ability of HPN-07 to restore the structural integrity of ribbon synapses among IHCs following an excitotoxic trauma in this co-culture model is consistent with HPN-07 acting to promote synaptogenesis (i.e., re-innervation) in this context.
FIG. 6 summarizes a quantitative evaluation from a targeted comparison of the number and spatial distribution of ribbons among IHCs from untreated, BDNF-treated, or HPN-07-treated explants following excitotoxic exposure to KA. […] Each data point represents a composite of approximately ten independent measurements.

PC12 cell line [2] = test: NGF-induced neuritogenesis in PC12 cells; assay type: cell-based
Protocol: This NGF-induced neuritogenic response was apparently saturable at concentrations at and above 10 ng/mL in this context.
FIG. 4 depicts the percentage of PC12 cells with significant neurite outgrowth. The pattern observed here is similar to that observed for treatment-induced increases in average neurite length. Taken together, these evaluations support the interpretation that HPN-07 acts in concert with NGF to promote both de novo neurite outgrowth and changes in the stability or assembly kinetics of neurites in such a manner as to support increases in mean neurite length, both of which are desirable features for re-innervation of IHCs.

noise-damaged chinchilla = test: Live animal study in noise-damaged chinchilla; assay type: in vivo
[3] = tested on: murine spiral ganglion (SG) tissue explants; test: Neuritogenesis in murine spiral ganglion explants; assay type: cell-based, mouse; conditions: for neurite outgrowth induced by exogenous neurotrophic factor: at 10 μM (so in the source) relative to untreated controls, FIG. 24B, FIG. 26B
PC12 cell line [4] = conditions: cited from earlier work

2,4-disulfonyl α-phenyl tertiary butyl nitrone [HPN-07]
neurite densities along the base of IHCs ([1]; SGN-HC co-cultures following KA): increased neurite densities along the base of IHCs
number of total ribbons among IHCs ([1]; after KA, compared with BDNF, FIG. 6): greater number of total ribbons
KA-induced apical shift of CtBP2 puncta and loss of PSD-95 co-labeling (IHC ribbon synapse integrity) ([1]; post-excitotoxic treatment, 10 μM, FIG. 5): reversed this pathologic shift
KA-induced shift of pre-synaptic densities from typical to apical distributions ([1]; FIG. 6): reversed this pathologic change
mean neurite lengths (PC12 cell line [2]; 1 μM HPN-07 + 10 ng/mL NGF, 6 days, FIG. 3): markedly surpassed the maximum lengths achieved in the saturable NGF dose-escalation series
NGF-mediated neuritogenesis (mean neurite length) (PC12 cell line [2]; 1 μM HPN-07 + 1 and 5 ng/mL NGF, 6 days, FIG. 3): enhances
percentage of PC12 cells bearing neurites (PC12 cell line [2]; HPN-07 + escalating doses of NGF, FIG. 4): significantly enhanced NGF-induced neuritogenesis
neurite length, HPN-07 alone (PC12 cell line [2]; low concentrations, no NGF): did not increase neurite length
functional recovery (noise-damaged chinchilla; long after the duration of treatment): progressive degree of functional recovery
inner hair cell neurite populations (noise-damaged chinchilla; relative to untreated controls): significantly greater inner hair cell neurite populations
potentiation of BDNF-induced neuritogenesis ([3]; BDNF 10 ng/mL + HPN-07 0.1 μM, 48 hours, serum-free medium, FIG. 2): potentiated neuritogenesis
neurite outgrowth (number and length of neurites) from SG explants ([3]; HPN-07 alone vs untreated controls (NC), FIG. 1): induced marked neurite outgrowth
concentration sufficient to induce a neuritogenic response ([3]; organotypic cultures of mouse spiral ganglion neurons): 100 µM
number and extent of nerve fibers in addition to BDNF ([3]; with BDNF 10 ng/ml, FIG. 24): greatly increased the number and extent of nerve fibers
NT-3 induced neuritogenesis ([3]; with NT-3 10 ng/ml, FIG. 26): enhanced

CC(C)(C)[N+]([O-])=Cc1ccccc1 [PBN, alpha-phenyl N-tertiary-butyl nitrone]
concentration required for inducing neuritogenesis in PC12 cells (PC12 cell line [4]): 10 mM

NGF: Nerve growth factor
concentrations at which the NGF-induced neuritogenic response is saturable (PC12 cell line [2]; NGF alone): ≥ 10 ng/mL
neurite elongation (PC12 cell line [2]; NGF alone): induced neurite elongation in a dose-dependent manner

B1: NT-3: inherent neurotrophic factor in the inner ear, essential for development and survival of cochlear spiral ganglions (protein, UniProt P20783 139-257, looked up)
Neurotrophin-3: YAEHKSHRGEYSVCDSESLWVTDKSSAIDIRGHQVTVLGEIKTGNSPVKQYFYETRCKEARPVKNGCRGIDDKHWNSQCKTSQTYVRALTSENNKLVGWRWIRIDTSCVCALSRKIGRT
neurite outgrowth induced by exogenous neurotrophic factor [3]: induced significant neurite outgrowth

B2: BDNF: Brain-derived neurotrophic factor, the canonical cochlear neuritogenic growth factor (protein, UniProt P23560 19-247, looked up)
Neurotrophic factor BDNF …: APMKEANIRGQGGLAYPGVRTHGTLESVNGPKAGSRGLTSLADTFEHVIEELLDEDQKVRPNEENNKDADLYTSRVMLSSQVPLEPPLLFLLEEYKNYLDAANMSMRVRRHSDPARRGELSVCDSISEWVTAADKKTAVDMSGGTVTVLEKVPVSKGQLKQYFYETKCNPMGYTKEGCRGIDKRHWNSQCRTTQSYVRALTMDSKKRIGWRFIRIDTSCVCTLTIKRGR
KA-induced shift of pre-synaptic densities from typical to apical distributions ([1]; FIG. 6): reversed this pathologic change
neurite outgrowth induced by exogenous neurotrophic factor [3]: induced significant neurite outgrowth
